The values below come from patent US4457936A, “Use of hydroxyphenyl-thiazole-, -thiazoline- and -thiazolidine-carboxylic acids, for influencing the collagen metabolism” (Hoechst Aktiengesellschaft, priority 1980, dated 1984).

One assay concerns collagen biosynthesis. Briefly: inhibiting effect in cell culture. Type of assay: cell-based. The settings on record: read-out: DI50 cell culture. From the text:
(§1) As enzymes, prolyl hydroxylase or lysyl hydroxylase can be used and applied in a cell-free medium. The effect of the substances of the invention can be measured furthermore in cell and tissue cultures.
(§2) The inhibiting effect (DI50) is that concentration at which the enzyme reaction is inhibited by 50%.

In the next assay the target is T1, lysyl hydroxylase (Homo sapiens, UniProt Q02809).
T1 sequence (Q02809 19-727): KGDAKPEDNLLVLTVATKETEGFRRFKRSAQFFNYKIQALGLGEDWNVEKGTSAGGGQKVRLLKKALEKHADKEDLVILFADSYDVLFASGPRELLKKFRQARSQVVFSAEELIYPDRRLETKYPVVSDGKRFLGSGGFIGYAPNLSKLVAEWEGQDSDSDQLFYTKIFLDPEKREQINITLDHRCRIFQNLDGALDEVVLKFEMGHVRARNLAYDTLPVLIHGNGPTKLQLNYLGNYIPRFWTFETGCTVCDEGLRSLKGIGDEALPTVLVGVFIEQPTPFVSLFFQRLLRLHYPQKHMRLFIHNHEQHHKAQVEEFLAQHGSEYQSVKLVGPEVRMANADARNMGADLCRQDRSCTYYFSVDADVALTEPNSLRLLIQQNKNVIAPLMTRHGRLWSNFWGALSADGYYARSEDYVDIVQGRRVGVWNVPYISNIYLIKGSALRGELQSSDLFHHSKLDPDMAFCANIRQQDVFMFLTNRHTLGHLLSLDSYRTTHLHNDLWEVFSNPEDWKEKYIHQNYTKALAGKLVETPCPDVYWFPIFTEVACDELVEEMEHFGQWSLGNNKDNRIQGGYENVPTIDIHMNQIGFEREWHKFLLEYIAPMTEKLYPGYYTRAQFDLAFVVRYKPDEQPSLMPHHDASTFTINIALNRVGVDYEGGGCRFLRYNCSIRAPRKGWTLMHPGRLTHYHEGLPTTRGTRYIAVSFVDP
Briefly: enzyme test, hydroxylation of insufficiently hydroxylated collagen by lysyl hydroxylase (cell-free). Type of assay: biochemical.
Description: (§3) The inhibiting effect of the substances in accordance with the invention on collagen biosynthesis can be examined in an enzyme test analogous to the method of B. Peterkofsky and R. DiBlasio [Anal. Biochem. 66, 279-286 (1975)]. In this test, insufficiently hydroxylated collagen is enzymatically hydroxylated in the presence of molecular oxygen, iron-II ions, alpha-ketoglutaric and ascorbic acid.
as §1, §2

In the next assay the target is prolyl hydroxylase (Homo sapiens, UniProt P13674). Briefly: enzyme test, hydroxylation of insufficiently hydroxylated collagen by prolyl hydroxylase (cell-free). Type of assay: biochemical.
Description: as §3, §1, §2

[1] abbreviates: concentration at which the enzyme reaction is inhibited by 50%, first part of Table, read-out: DI50 lysylhydroxylase.
The mark [2] stands for this setting: concentration at which the enzyme reaction is inhibited by 50%, first part of Table, read-out: DI50 propyl-hydroxylase.
[3] abbreviates: second part of Table, column L (circled), read-out: DI50 L.circle.
Setting [4] is: second part of Table, P, read-out: DI50 P.circle.

Where two headings read alike, the source gives them in different places.

prolyl hydroxylase, sequence (P13674 18-534): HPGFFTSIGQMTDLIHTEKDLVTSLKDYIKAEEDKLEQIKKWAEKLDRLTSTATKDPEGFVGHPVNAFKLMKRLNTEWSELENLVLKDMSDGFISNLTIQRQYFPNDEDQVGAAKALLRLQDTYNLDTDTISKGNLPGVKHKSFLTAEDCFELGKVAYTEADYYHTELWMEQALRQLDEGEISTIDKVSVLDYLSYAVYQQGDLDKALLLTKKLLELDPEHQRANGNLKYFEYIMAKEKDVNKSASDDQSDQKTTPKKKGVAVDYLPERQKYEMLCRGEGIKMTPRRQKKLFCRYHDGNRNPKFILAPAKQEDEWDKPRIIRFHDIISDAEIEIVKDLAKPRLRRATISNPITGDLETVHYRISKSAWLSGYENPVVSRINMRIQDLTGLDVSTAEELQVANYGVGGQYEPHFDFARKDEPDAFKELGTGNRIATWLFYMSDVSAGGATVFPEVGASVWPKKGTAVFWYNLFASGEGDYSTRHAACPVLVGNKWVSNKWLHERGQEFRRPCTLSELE
prolyl hydroxylase, sequence (P07237 18-508 partner): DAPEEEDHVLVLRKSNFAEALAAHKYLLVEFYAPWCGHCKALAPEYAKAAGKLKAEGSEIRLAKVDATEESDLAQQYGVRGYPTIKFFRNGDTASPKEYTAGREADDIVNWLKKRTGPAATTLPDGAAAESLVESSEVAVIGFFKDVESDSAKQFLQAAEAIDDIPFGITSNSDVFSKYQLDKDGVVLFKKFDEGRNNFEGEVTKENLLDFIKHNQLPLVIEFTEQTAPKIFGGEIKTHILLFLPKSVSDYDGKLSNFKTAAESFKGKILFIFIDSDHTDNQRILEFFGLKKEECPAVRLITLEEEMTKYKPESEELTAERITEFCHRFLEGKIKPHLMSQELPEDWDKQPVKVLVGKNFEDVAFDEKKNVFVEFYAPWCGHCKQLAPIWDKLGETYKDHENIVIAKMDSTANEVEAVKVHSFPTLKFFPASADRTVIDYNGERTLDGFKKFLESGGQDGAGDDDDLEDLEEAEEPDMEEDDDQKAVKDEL

As for `Cc1ccc(O)c(C2=NC(C(=O)O)CS2)c1` (centres unmarked), the IC50 in the assay with collagen biosynthesis worked out at 34 µM; at lysyl hydroxylase (setting [1]), 28 µM; on prolyl hydroxylase (setting [2]), 28 µM.

`O=C(O)C1CSC(c2ccccc2O)=N1` (centres unmarked): the IC50 was determined as 28 µM on lysyl hydroxylase (setting [1]) and 20 µM on prolyl hydroxylase (setting [2]).

On to `O=C(O)C1CSC(c2cc(Cl)ccc2O)=N1` (centres unmarked), for which the IC50 was 17 µM in the assay with collagen biosynthesis, 12 µM at lysyl hydroxylase (setting [1]) and 16 µM on prolyl hydroxylase (setting [2]).

As for `O=C(O)C1CSC(c2ccc(O)cc2O)=N1` (centres unmarked), the values for the IC50 at lysyl hydroxylase (setting [1]) and on prolyl hydroxylase (setting [2]) were 16 µM and 26 µM, respectively.

Regarding `O=C(O)[C@@H]1CSC(c2ccccc2O)N1` (some centres unmarked), the IC50 on lysyl hydroxylase (setting [1]) and on prolyl hydroxylase (setting [2]) was 28 µM throughout.

Consider `O=C(O)[C@@H]1CSC(c2cc([N+](=O)[O-])ccc2O)N1` (some centres unmarked), for which the IC50 at lysyl hydroxylase (setting [1]) and on prolyl hydroxylase (setting [2]) was 50 to 100 µM throughout.

For the molecule `O=C(O)[C@@H]1CSC(c2cc(Br)cc(Br)c2O)N1` (some centres unmarked), the IC50 was 10 µM at lysyl hydroxylase (setting [1]) and 50 to 100 µM at prolyl hydroxylase (setting [2]).

With `O=C(O)[C@@H]1CSC(c2cc(Cl)cc(Cl)c2O)N1` (some centres unmarked), the IC50 on lysyl hydroxylase (setting [1]) and at prolyl hydroxylase (setting [2]) was 50 to 100 µM each time.

For `Cc1ccc(O)c(-c2nc(C(=O)O)cs2)c1`, the IC50 at lysyl hydroxylase (setting [1]) amounted to 67 µM; at prolyl hydroxylase (setting [2]), 42 µM.

As to `Cc1ccc(O)c(-c2nc(C(=O)O)c(-c3ccccc3)s2)c1`, the IC50 came to 34 µM on lysyl hydroxylase (setting [3]) and 26 µM on prolyl hydroxylase (setting [4]).

For `O=C(O)c1nc(-c2ccc(O)cc2O)sc1-c1ccccc1`, the IC50 at lysyl hydroxylase (setting [3]) was 21 µM; at prolyl hydroxylase (setting [4]), 27 µM.

In the case of `Cc1ccc(O)c(-c2nc(C(=O)O)c(C(=O)O)s2)c1`, the values for the IC50 on lysyl hydroxylase (setting [3]) and on prolyl hydroxylase (setting [4]) were 144 µM and 67 µM, respectively.

`O=C(O)c1csc(-c2cc(Cl)ccc2O)n1`: the IC50 on lysyl hydroxylase (setting [3]) came to 188 µM; at prolyl hydroxylase (setting [4]), 71 µM.

For the molecule `Nc1ccc(O)c(-c2nc(C(=O)O)cs2)c1`, the IC50 was 29 µM at lysyl hydroxylase (setting [3]) and 5.6 µM on prolyl hydroxylase (setting [4]).

With `O=C(O)c1csc(-c2cc(Cl)c3ccccc3c2O)n1`, the IC50 on lysyl hydroxylase (setting [3]) is 31.6 µM; on prolyl hydroxylase (setting [4]), 28.2 µM.
